The record followed here is patent publication US8367702B2, “Quinolone derivative” (Astellas Pharma Inc., priority 2007, dated 2013).

Data set [1] can be described thus: Oral glucose tolerance test using mice. The data set is classed as in vivo. To be noted: Mus musculus, 0.5 h, 3 mg/kg orally 5 minutes prior to oral glucose loading (2 g/kg), 30 minutes after glucose loading, relative to control group, male ICR or C57BL/6 J mice, read-out: blood glucose-lowering rate. An excerpt: Test 2: Oral Glucose Tolerance Test Using Mice
This test is intended to evaluate an inhibitory action of a test compound on elevation of the blood glucose level after glucose loading, using mice. A test method is described hereinafter.
Male ICR or C57BL/6 J mice (6 weeks old, available from CLEA JAPAN, Inc.) pre-bred for one week were fasted overnight and used as test animals. A test compound was suspended in 10% PEG-60 Hydrogenated Castor Oil (HCO-60) aqueous solution, and was orally administered (3 mg/kg) to animals 5 minutes prior to oral glucose loading (2 g/kg). The control group was given a 10% HCO-60 aqueous solution. According to the following equation, a blood glucose-lowering rate (%) at 30 minutes after glucose loading was calculated for the test compound-treated group relative to the control group. An increase in the blood glucose level of the test compound-treated group and an increase in the blood glucose level of the control group were taken as A and B, respectively. Blood glucose-lowering rate (%)=100−[(A/B)×100]

The subject of data set [2] is NADPH oxidase. Put plainly: Inhibitory activity on ROS production derived from NADPH oxidase (HUVECs, nitrotetrazolium blue). The data set is classed as cell-based, Human. To be noted: 1.0 μM test compound, 25 mM glucose, 200 μM NADPH, 2 hours. The procedure:
Test 1: Inhibitory Activity on ROS Production Derived from NADPH Oxidase
This activity was measured by using Human Umbilical Vein Endothelial Cells (HUVECs). The test method is as follows.
3×10^4 cells/well (100 μL) of HUVECs were seeded into a 96-well plate coated with collagen. The culture medium was MCDB131 medium containing 10% fetal bovine serum, 2 mM glutamine, 100 U/mL penicillin, 100 U/mL streptomycin, and 10 ng/mL recombinant human basic-FGF. On the next day, the culture medium was removed by an aspirator, and 100 μL/well of phosphate buffered saline containing 25 mM glucose, 200 μM NADPH, 0.2% nitrotetrazolium blue, and test compounds followed by culturing at 37° C. Nitrotetrazolium blue reacts with intracellularly produced ROS and turns into a water-insoluble blue pigment. After 2 hours, the supernatant was discarded, and the wells were washed three times with phosphate buffered physiological saline. Then, 100 μL/well of 90% DMSO water containing 0.04M sodium hydroxide was added to each well to completely dissolve the pigment, and an absorbance at a wavelength of 715 nm was measured. By taking an absorbance with no addition of a test compound as A, an absorbance […], and an absorbance with addition of glucose, NADPH and a test compound as C, ROS production inhibitory rate was calculated according to the following equation. Inhibition rate (%)=[…]
Abbreviation “Ex” in the table represents Example Compound No. which will follow, and abbreviation “Inh” represents an ROS production inhibition rate. It was confirmed that the compounds of the formula (I) of the present invention have an excellent ROS production inhibitory activity.

Each structure is given as a SMILES string.

For the molecule `Cc1c(COc2cccc(OCCC(C)(C)O)c2)[nH]c2ccccc2c1=O` [Ex 141], the inhibition in vivo at 3 mg/kg in data set [1] lay in the range of 70 to 105%. On the same count and under the same terms, next, `Cc1c(COc2cc(OCC3CCOCC3)ccn2)[nH]c2ccc(F)cc2c1=O` [Ex 153]: 70 to 105%. Same read-out and setting: next, `COC(C)(C)CCOc1ccnc(OCc2[nH]c3ccccc3c(=O)c2C)c1` [Ex 186]: 70 to 105%. Same read-out and setting: next, `Cc1c(CO[C@H]2CC[C@H](NC(=O)CC(C)(C)O)CC2)[nH]c2ccccc2c1=O` [Ex 248]: 89%. For the molecule `Cc1c(COC(=O)NCCCc2ccccc2)[nH]c2ccccc2c1=O` [Ex 284], the inhibition in vivo at 3 mg/kg in data set [1] lay in the range of 70 to 105%. Also, in data set [2], the “Inh(%) ROS production inhibition rate” value was found to be 64.2 ± 0.1%. Usually melting point stands for the temperature of the solid-liquid transition. `Cc1c(COc2cc(OCCC(C)(C)O)ccn2)[nH]c2ccccc2c1=O` [Example 4, 2-({[4-(3-hydroxy-3-methylbutoxy)pyridin-2-yl]oxy}methyl)-3-methylquinolin-4(1H)-one] came in with a melting point of 127 to 130 °C. In data set [1], the inhibition in vivo at 3 mg/kg lay in the range of 70 to 105%. Further, the “Inh(%) ROS production inhibition rate” value in data set [2] turned out to be 84.7 ± 2.1%. Regarding `Cc1c(COc2cc(OCCC3CCOCC3)ccn2)[nH]c2ccccc2c1=O` [Example 8, 3-methyl-2-[({4-[2-(tetrahydro-2H-pyran-4-yl)ethoxy]pyridin-2-yl}oxy)methyl]quinolin-4(1H)-one], the melting point was 137 to 138 °C. The inhibition in vivo at 3 mg/kg in data set [1] fell in the range of 70 to 105%. For the same molecule, the “Inh(%) ROS production inhibition rate” value in data set [2] came to 91.5 ± 4.7%.
